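48-hour exposure; five concentrations; linearly interpolated endpoints. GI50 marks 50% less growth. Definition used: TGI = concentration required for complete inhibition of growth.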
How the values were obtained:
Assay in all cases: NCI-60 cell line screen, 48 h
SR leukemia = system: SR leukemia
OVCAR-3 ovarian = system: OVCAR-3 ovarian
SNB-75 CNS = system: SNB-75 CNS
UACC-257 melanoma = system: UACC-257 melanoma
NCI-H522 lung = system: NCI-H522 lung
RXF 393 renal = system: RXF 393 renal
A549 NSCLC = system: A549 NSCLC
M14 melanoma = system: M14 melanoma
RPMI-8226 leukemia = system: RPMI-8226 leukemia
K-562 leukemia = system: K-562 leukemia

Compound	GI50 (SR leukemia) [µM]	TGI (SR leukemia) [µM]	GI50 (OVCAR-3 ovarian)	TGI (OVCAR-3 ovarian) [µM]	GI50 (SNB-75 CNS) [µM]	TGI (SNB-75 CNS) [µM]	GI50 (UACC-257 melanoma) [µM]	TGI (UACC-257 melanoma) [µM]	GI50 (NCI-H522 lung)	TGI (NCI-H522 lung) [µM]	GI50 (RXF 393 renal) [µM]	TGI (RXF 393 renal) [µM]	GI50 (A549 NSCLC)	TGI (A549 NSCLC) [µM]	GI50 (M14 melanoma) [µM]	TGI (M14 melanoma) [µM]	TGI (RPMI-8226 leukemia) [µM]	TGI (K-562 leukemia) [µM]	GI50 (RPMI-8226 leukemia)	GI50 (K-562 leukemia)
O=C1c2ccccc2C(=O)c2c1ccc(C(Br)Br)c2[N+](=O)[O-]	0.259	1.75	1.63 µM	3.04	14.1	28.7	1.74	3.28	1.84 µM	3.46	1.26	2.72	17.6 µM	33.6	1.97	3.94	–	–	–	–
CC1=NNC(=NCCN(C)C)C/C1=C/c1ccccc1Cl	–	–	–	> 100	–	> 100	–	98	–	–	–	> 100	–	> 100	–	> 100	–	–	–	–
COC(=O)C1=C(OC)c2cc3c(cc2C(c2cc(OC)c(OC)c(OC)c2)C1C(=O)OC)OCO3 (stereo not given)	–	> 100	–	> 100	–	> 100	–	> 100	–	–	–	> 100	–	> 100	–	> 100	> 100	> 100	–	–
O=C1C2c3[nH]c4ccccc4c3[C@@H]3CCCCCCCCCCC3C2C(=O)N1c1ccccc1 (stereo not given in full)	–	43.3	–	33	–	6.44	–	–	–	–	–	32.7	–	62.4	–	34.3	> 100	29.5	–	–
C(=N\Nc1nnc2c(n1)[nH]c1ccccc12)/c1cccnc1	–	–	–	> 100	–	> 100	–	> 100	–	> 100	–	> 100	–	> 100	–	46.2	> 100	> 100	–	–
Cn1cnc([N+](=O)[O-])c1Sc1ccccn1	–	> 100	–	> 100	–	> 100	–	> 100	–	> 100	–	–	–	> 100	–	> 100	> 100	> 100	–	–
O=[N+]([O-])c1cccc([N+](=O)[O-])c1S(=O)(=O)c1ccccc1	–	–	–	5.5	–	–	–	28.8	–	–	–	–	–	41.8	–	6.59	3.68	–	–	–
Cc1c[nH]c2c1C13CC1CN(C(=O)c1cc4cc(NC(=O)c5cc6ccccc6o5)ccc4[nH]1)C3=CC2=O (stereo not given)	–	< 0.001	> 1.17 ng/mL	–	–	–	–	–	> 1.17 ng/mL	< 0.001	–	< 0.001	> 1.17 ng/mL	–	–	< 0.001	–	–	> 1.17 ng/mL	> 1.17 ng/mL
CC#C[C@@]1(O)CCCC[C@@H]1O	–	–	–	> 100	–	> 100	–	> 100	–	> 100	–	> 100	–	> 100	–	> 100	> 100	> 100	–	–
CCOC(=O)C1N(S(=O)(=O)c2ccc(C)cc2)CCC12c1ccccc1N(C(C)=O)C2C(/C=C/C(=O)OC)=C/C(=O)OC (stereo not given)	–	–	–	> 100	–	> 100	–	> 100	–	> 100	–	> 100	–	> 100	–	> 100	> 100	> 100	–	–
CCOC(=O)c1sc(-c2ccc(OS(=O)(=O)c3cccs3)c(C=O)c2)nc1C	1.82	> 100	–	–	1.57	4.07	2.51	6.35	1.51 µM	3.43	–	–	2.3 µM	6.72	1.9	3.86	4.72	> 100	1.01 µM	0.574 µM
CC(CN=C(CC(=O)c1ccc(Br)cc1)c1ccccc1)N=C(CC(=O)c1ccc(Br)cc1)c1ccccc1 (stereo not given)	–	–	–	14.7	> 100	> 100	7.77	> 100	5.53 µM	> 100	5.59	> 100	7.6 µM	> 100	–	–	38.6	> 100	4.37 µM	> 100 µM
O=NC1c2cccc3cccc(c23)C1N=O (stereo not given)	–	–	–	9.6	–	31.3	–	27.5	–	9.14	–	14.1	–	17	–	27.3	39.9	11.7	–	–
CCOC(=O)C(C)(C)Oc1ccc2c(=O)cc(-c3ccccc3)oc2c1	–	–	–	39	–	57.6	–	31.2	–	28.5	–	78.1	–	59	–	36.3	37.8	31.2	–	–
C[Si](C)(C)/C=C/CCC(C=O)(CCCl)c1ccccc1 (stereo not given)	–	–	–	38.1	–	96.6	–	75.8	–	35.6	–	54.6	–	98.4	–	86.6	–	> 100	–	–
Cc1cc(NS(=O)(=O)c2ccc(Nc3c4ccccc4nc4c(C(=O)Nc5ccc(S(=O)(=O)N=C(N)N)cc5)cccc34)cc2)no1	–	–	–	> 100	–	> 100	–	> 100	–	> 100	–	> 100	–	> 100	–	> 100	> 100	> 100	–	–

Reference: PubChem BioAssay (NCI)
